Experimental data reported in ChEMBL document CHEMBL1201862, “PubChem BioAssay data set” (2004).
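These data come from cells grown in 96-well plates and exposed to compound for 48 hours at five concentrations. GI50 is the concentration that inhibits growth by half.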 Calls of active or inactive are those of the source. Rule as the data show it: active = GI50 up to about 1.1 µM and inactive = higher.

Experiments:
Test in all cases: DTP human tumour cell line panel, 48 h
A498 = tested on: A498
IGROV-1 = tested on: IGROV-1
MCF7 = tested on: MCF7
OVCAR-8 = tested on: OVCAR-8
HL-60 = tested on: HL-60
TK-10 = tested on: TK-10
LOX IMVI = tested on: LOX IMVI
NCI-H522 = tested on: NCI-H522
UACC-257 = tested on: UACC-257
ACHN = tested on: ACHN
Malme-3M = tested on: Malme-3M
NCI-H226 = tested on: NCI-H226
786-0 = tested on: 786-0
HOP-92 = tested on: HOP-92
HOP-62 = tested on: HOP-62
NCI/ADR-RES = tested on: NCI/ADR-RES
KM12 = tested on: KM12
U-251 = tested on: U-251
PC-3 = tested on: PC-3
SNB-75 = tested on: SNB-75

Measured: GI50

C[N+]1(C)CCc2cc(O)c(O)cc2C1Cc1ccc(O)c(O)c1 (configuration not stated)
inactive: A498 > 100 µM | IGROV-1 28 µM | MCF7 19.8 µM | OVCAR-8 35.2 µM | HL-60 18.3 µM | TK-10 94.8 µM | LOX IMVI 27.7 µM | NCI-H522 22.5 µM | UACC-257 31.2 µM | ACHN 35.3 µM | Malme-3M 32.1 µM | NCI-H226 39.2 µM | 786-0 40.6 µM | HOP-92 27.1 µM | HOP-62 > 100 µM | NCI/ADR-RES 79.4 µM | KM12 > 100 µM | U-251 > 100 µM | PC-3 > 100 µM

CCCCCCCCCCCCn1c(=O)cc(NCCCC)c2cc3c(NCCCC)cc(=O)n(CCCCCCCCCCCC)c3nc21
inactive: A498 > 100 µM | MCF7 > 100 µM | TK-10 > 100 µM | NCI-H522 > 100 µM | UACC-257 > 100 µM | ACHN > 100 µM | SNB-75 > 100 µM | Malme-3M > 100 µM | NCI-H226 > 100 µM | 786-0 > 100 µM | HOP-92 > 100 µM | HOP-62 53.8 µM | NCI/ADR-RES > 100 µM | KM12 > 100 µM | U-251 > 100 µM | PC-3 > 100 µM

CC(C)[Si](OCC/C=C/C1CCC(=O)C1C(O)C1CCCCC1)(C(C)C)C(C)C (configuration not stated)
inactive: A498 18.3 µM | IGROV-1 15.1 µM | MCF7 15.9 µM | OVCAR-8 15.2 µM | TK-10 17.9 µM | LOX IMVI 17.1 µM | NCI-H522 12 µM | UACC-257 15.4 µM | ACHN 14.8 µM | SNB-75 15.2 µM | Malme-3M 14.8 µM | NCI-H226 16 µM | 786-0 15.9 µM | HOP-92 11.8 µM | HOP-62 16.9 µM | NCI/ADR-RES 13.9 µM | KM12 15.9 µM | U-251 15.8 µM | PC-3 13.3 µM

CN(C)c1c(Cl)c(=O)oc2c1ccc1nc(-c3ccccc3)sc12
inactive: A498 > 100 µM | IGROV-1 > 100 µM | MCF7 57.7 µM | OVCAR-8 > 100 µM | HL-60 > 100 µM | TK-10 > 100 µM | LOX IMVI > 100 µM | NCI-H522 > 100 µM | UACC-257 > 100 µM | ACHN > 100 µM | Malme-3M 31.5 µM | NCI-H226 > 100 µM | 786-0 > 100 µM | HOP-92 > 100 µM | HOP-62 98.9 µM | NCI/ADR-RES > 100 µM | KM12 > 100 µM | U-251 > 100 µM | PC-3 > 100 µM

COc1cc(C2SCC(=O)N2c2cccc(Cl)c2)cc(OC)c1OC (configuration not stated)
inactive: A498 > 100 µM | IGROV-1 65.9 µM | MCF7 46.8 µM | OVCAR-8 > 100 µM | HL-60 35.3 µM | TK-10 > 100 µM | LOX IMVI 70.1 µM | NCI-H522 21.2 µM | UACC-257 > 100 µM | ACHN > 100 µM | NCI-H226 > 100 µM | 786-0 51.6 µM | HOP-92 31.2 µM | NCI/ADR-RES 71.9 µM | KM12 47.8 µM | U-251 > 100 µM | PC-3 > 100 µM

C=C(Cl)CN1c2ccccc2C=Cc2ccccc21
inactive: A498 34.7 µM | IGROV-1 16.1 µM | MCF7 15.2 µM | OVCAR-8 14.8 µM | TK-10 48.3 µM | LOX IMVI 11 µM | NCI-H522 21.6 µM | UACC-257 16.3 µM | ACHN 7.05 µM | SNB-75 24.7 µM | Malme-3M 27.5 µM | NCI-H226 27.5 µM | 786-0 14.2 µM | HOP-92 22.3 µM | HOP-62 16.6 µM | NCI/ADR-RES > 100 µM | KM12 11 µM | U-251 10.1 µM | PC-3 9.12 µM

CC1(C)C2CCC3CC(CCC#N)CCC3C21C#N (configuration not stated)
inactive: A498 > 100 µM | IGROV-1 > 100 µM | MCF7 > 100 µM | OVCAR-8 > 100 µM | HL-60 > 100 µM | TK-10 > 100 µM | LOX IMVI > 100 µM | NCI-H522 > 100 µM | UACC-257 > 100 µM | ACHN > 100 µM | Malme-3M > 100 µM | NCI-H226 > 100 µM | 786-0 > 100 µM | HOP-92 > 100 µM | HOP-62 > 100 µM | NCI/ADR-RES > 100 µM | KM12 18 µM | U-251 > 100 µM | PC-3 > 100 µM

Cc1nnc2n1N=C(c1cc(F)c(Cl)cc1Cl)/C(=C/c1ccc(-c3ccc([N+](=O)[O-])cc3)o1)S2
inactive: A498 > 100 µM | IGROV-1 > 100 µM | MCF7 44 µM | OVCAR-8 35.7 µM | HL-60 46.3 µM | LOX IMVI 33.2 µM | NCI-H522 32.7 µM | UACC-257 > 100 µM | ACHN > 100 µM | Malme-3M > 100 µM | 786-0 78.3 µM | HOP-92 > 100 µM | HOP-62 > 100 µM | NCI/ADR-RES > 100 µM | KM12 69.2 µM | U-251 71.8 µM | PC-3 47.4 µM

Cc1c(C)c(S(=O)(=O)N(CCCN)OCCCN)c(C)c2c1OC(C)(C)CC2
inactive: A498 12.9 µM | IGROV-1 7.78 µM | MCF7 15.4 µM | OVCAR-8 16.3 µM | TK-10 14.7 µM | LOX IMVI 13.3 µM | NCI-H522 14 µM | UACC-257 13.7 µM | ACHN 16.1 µM | SNB-75 11.3 µM | Malme-3M 13.6 µM | NCI-H226 13.4 µM | 786-0 15.9 µM | HOP-92 7.5 µM | HOP-62 13.3 µM | NCI/ADR-RES 25.7 µM | KM12 12.4 µM | U-251 11.9 µM | PC-3 12 µM

CCCCNc1nc(O)c2[nH]cnc2n1
inactive: A498 > 100 µM | IGROV-1 > 100 µM | MCF7 > 100 µM | OVCAR-8 > 100 µM | TK-10 > 100 µM | LOX IMVI > 100 µM | NCI-H522 51.8 µM | UACC-257 > 100 µM | ACHN > 100 µM | SNB-75 > 100 µM | Malme-3M > 100 µM | NCI-H226 > 100 µM | 786-0 > 100 µM | HOP-92 > 100 µM | HOP-62 > 100 µM | NCI/ADR-RES > 100 µM | KM12 > 100 µM | U-251 > 100 µM | PC-3 > 100 µM

C[C@@H](Oc1ccc(Oc2cnc3ccc(Cl)cc3n2)cc1)C(=O)O [R(+)XK469]
inactive: A498 > 100 µM | IGROV-1 83 µM | MCF7 39 µM | OVCAR-8 > 100 µM | HL-60 37.1 µM | TK-10 > 100 µM | LOX IMVI > 100 µM | NCI-H522 19.1 µM | UACC-257 > 100 µM | ACHN 87.9 µM | SNB-75 > 100 µM | Malme-3M > 100 µM | 786-0 > 100 µM | HOP-92 > 100 µM | HOP-62 72.8 µM | NCI/ADR-RES > 100 µM | KM12 76.6 µM | U-251 > 100 µM | PC-3 > 100 µM
